Columns and labels:
[1] = biological target: T1, pFA-PPARδ-LBD in BHK21 cells (Homo sapiens, UniProt Q03181); experiment: Luciferase transcriptional reporter gene assay (transactivation), PPARδ; format: cell-based; conditions: for EC50: 24 hours with compound; for PPARδ efficacy relative to reference compound: reference PPARδ compound set to 100%
T1 construct: PPARδ (aa 139 to 442); expressed in transfected cells; host or cells: BHK21 (ATCC CCL10)
T1 sequence (Q03181 139-441 limits assumed): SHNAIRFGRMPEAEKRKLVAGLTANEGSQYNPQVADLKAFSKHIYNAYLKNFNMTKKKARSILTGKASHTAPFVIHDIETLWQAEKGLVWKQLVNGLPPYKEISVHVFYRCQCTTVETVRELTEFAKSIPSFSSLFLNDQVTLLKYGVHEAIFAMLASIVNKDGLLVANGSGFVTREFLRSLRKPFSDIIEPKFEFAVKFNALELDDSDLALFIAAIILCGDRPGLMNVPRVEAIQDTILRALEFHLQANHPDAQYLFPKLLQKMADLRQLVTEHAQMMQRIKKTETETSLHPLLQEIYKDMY
Text: (§1) Full-length cDNA clones for humans PPARδ and PPARα and mouse PPARγ were obtained by RT-PCR from human adipose and mouse liver cRNA, respectively, cloned into plasmid vectors and verified by DNA sequencing. Bacterial and mammalian expression vectors were constructed to produce glutathione-s-transferase (GST) and Gal4 DNA binding domain proteins fused to the ligand binding domains (LBD) of PPARδ (aa 139 to 442), PPARγ (aa 174 to 476) and PPARα (aa 167 to 469). To accomplish this, the portions of the cloned sequences encoding the LBDs were amplified from the full-length clones by PCR and then subcloned into the plasmid vectors. Final clones were verified by DNA sequence analysis.
(§2) Baby hamster kidney cells (BHK21 ATCC CCL10) were grown in DMEM medium containing 10% FBS at 37° C. in a […]:5% CO2 atmosphere. Cells were seeded in 6 well plates at a density of 10^5 cells/well and then batch-transfected with either the pFA-PPARδ-LBD, pFA-PPARγ-LBD or pFA-PPARα-LBD expression plasmids plus a reporter plasmid (to monitor transfection efficiency). […] Six hours following transfection, the cells were harvested by trypsinization and seeded in 96 well plates at a density of 10^4 cells/well. After 24 hours the medium was removed and replaced with 100 ul of phenol red-free medium containing the corresponding test compounds or control ligands (at a final DMSO concentration of 0.1%). Following incubation of the cells for 24 hours with compounds, 50 μl of the supernatant was discarded and then 50 μl of Luciferase Constant—Light Reagent (Roche Molecular Biochemicals) was added to lyse the cells and initiate the luciferase reaction. Luminescence for luciferase was measured in a Packard TopCount. Transcriptional activation in the presence of a test substance was expressed as fold-activation over cells incubated in the absence of the substance. The signals were normalized against plate-specific controls (DMSO alone) and the fold-stimulation of luciferase activity observed with specific and selective PPARα((2(S)-2-(2-benzoyl-phenylamino)-3-{4-[2-(5-methyl-2-phenyl-oxazol-4-yl)-ethoxy]-phenyl}-propionic acid), PPARγ (Rosiglitazone) and PPARδ ({2-methyl-4-[4-methyl-2-(4-trifluoromethyl-phenyl)-thiazol-5-ylmethylsulfanyl]-phenoxy}-acetic acid) reference compounds was set to 100%. EC50 values were calculated using the XLfit program (ID Business Solutions Ltd. UK).

[2] = biological target: T2, pFA-PPARα-LBD in BHK21 cells (Homo sapiens, UniProt Q07869); experiment: Luciferase transcriptional reporter gene assay (transactivation), PPARα; format: cell-based; conditions: for EC50: 24 hours with compound; for PPARα maximal activation (% of reference compound): reference PPARα compound set to 100%
T2 construct: PPARα (aa 167 to 469); expressed in transfected cells; host or cells: BHK21 (ATCC CCL10)
T2 sequence (Q07869 167-468 limits assumed): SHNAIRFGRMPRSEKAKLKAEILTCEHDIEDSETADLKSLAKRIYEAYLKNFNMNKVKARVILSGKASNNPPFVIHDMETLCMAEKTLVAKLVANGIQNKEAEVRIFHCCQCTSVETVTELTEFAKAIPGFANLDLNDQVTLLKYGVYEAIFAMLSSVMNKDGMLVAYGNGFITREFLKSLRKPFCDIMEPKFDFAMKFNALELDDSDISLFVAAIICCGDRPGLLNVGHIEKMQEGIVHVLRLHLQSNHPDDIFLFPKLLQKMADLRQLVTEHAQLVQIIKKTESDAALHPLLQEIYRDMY
Text: as §1, §2

[3] = biological target: T3, GST-PPARγ-LBD fusion protein (Mus musculus, UniProt P37238); experiment: PPARγ radioligand binding assay (SPA)
T3 construct: PPARγ (aa 174 to 476); made in house; host or cells: E. coli BL21(pLysS)
T3 sequence (P37238 204-505): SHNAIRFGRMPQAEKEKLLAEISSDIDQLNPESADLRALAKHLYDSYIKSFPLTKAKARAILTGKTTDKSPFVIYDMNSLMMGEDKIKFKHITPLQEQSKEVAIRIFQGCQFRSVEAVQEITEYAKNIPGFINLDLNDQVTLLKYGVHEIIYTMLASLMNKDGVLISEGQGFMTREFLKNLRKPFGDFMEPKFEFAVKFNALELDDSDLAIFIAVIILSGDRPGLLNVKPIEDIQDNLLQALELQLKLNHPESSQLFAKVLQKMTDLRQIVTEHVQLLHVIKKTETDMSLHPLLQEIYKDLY
Text: as §1
(§3) Induction, expression, and purification of GST-LBD fusion proteins were performed in E. coli strain BL21(pLysS) cells by standard methods (Ref: Current Protocols in Molecular Biology, Wiley Press, edited by Ausubel et al.).
(§4) PPARγ receptor binding was assayed in TKE50 (50 mM Tris-HCl, pH 8, 50 mM KCl, 2 mM EDTA, 0.1 mg/ml fatty acid-free BSA and 10 mM DTT). […] All binding assays were performed in 96 well plates and the amount of bound ligand measured on a Packard TopCount using OptiPlates (Packard). Nonspecific binding was determined in the presence of 10^−4 M unlabelled compound. […]

[4] = biological target: T4, PPARδ receptor (GST-PPAR-LBD fusion protein) (Homo sapiens, UniProt Q03181); experiment: PPARδ radioligand binding assay (SPA)
T4 construct: PPARδ (aa 139 to 442); made in house; host or cells: E. coli BL21(pLysS)
T4 sequence (Q03181 139-441 limits assumed): T1 sequence (Q03181 139-441 limits assumed)
Text: as §1, §3
PPARδ receptor binding was assayed in HNM10 (50 mM Hepes, pH 7.4, 10 mM NaCl, 5 mM MgCl2, 0.15 mg/ml fatty acid-free BSA and 15 mM DTT). […] Radioligand was added and the reaction incubated at RT for 1 h and scintillation proximity counting performed in the presence of test compounds was determined. All binding assays were performed in 96 well plates and the amount of bound ligand was measured on a Packard TopCount using OptiPlates (Packard). […]

[5] = biological target: T5, GST-PPARα-LBD fusion protein (Homo sapiens, UniProt Q07869); experiment: PPARα radioligand binding assay (SPA)
T5 construct: PPARα (aa 167 to 469); made in house; host or cells: E. coli BL21(pLysS)
T5 sequence (Q07869 167-468 limits assumed): T2 sequence (Q07869 167-468 limits assumed)
Text: as §1, §3
as §4, with “PPARαreceptor” for “PPARγ receptor”

Row | EC50 [1] | PPARδ efficacy relative to reference compound [1] | EC50 [2] | PPARα maximal activation (% of reference compound) [2] | IC50 [3] | IC50 [4] | IC50 [5] | Compound
1 | 96 nM | 140% | 160 nM | 120% | ≥ 10000 nM | 222 nM | 212 nM | Cc1cc(OCc2cc(-c3ccc(OC(F)(F)F)cc3)nn2CC(F)(F)F)ccc1OC(C)(C)C(=O)O [Example 6, 2-Methyl-2-{2-methyl-4-[2-(2,2,2-trifluoro-ethyl)-5-(4-trifluoromethoxy-phenyl)-2H-pyrazol-3-ylmethoxy]-phenoxy}-propionic acid]
2 | 200 nM | 59% | 380 nM | 100% | ≥ 10000 nM | 144 nM | 166 nM | Cc1cc(OCc2cc(-c3ccc(OC(F)(F)F)cc3)nn2C)ccc1OC(C)(C)C(=O)O [Example 1, 2-Methyl-2-{2-methyl-4-[2-methyl-5-(4-trifluoromethoxy-phenyl)-2H-pyrazol-3-ylmethoxy]-phenoxy}-propionic acid]
